# Literature values as cited in patent US20230111756A1, “STABLE FORMULATIONS OF PLANTS EXTRACTS AND METHODS OF MAKING THE SAME” (Nulixir Inc., priority 2021, published 2023).
# Settings: reference solvents n-octanol and water; categorization at pH=7 unless stated otherwise
row,Compound,log P
1,"COc1ccc(CCc2cc(OC)cc(=O)o2)cc1 [7,8-dihydroyangonin]",~2.9
2,COc1cc2c(c(OC)c1OC)-c1c(cc(OC)c(OC)c1OC)C[C@H](C)[C@H](C)C2 [(−)-schisandrin A],~3.6
3,bacopaside B,~2.8
4,COc1cc2c(c(OC)c1OC)-c1c(cc(OC)c(OC)c1OC)C[C@](C)(O)[C@@H](C)C2 [schisandrol A],~3.4
5,herinacine A,~2.5
6,COc1c2c(cc3c1-c1c(cc4c(c1OC)OCO4)C[C@H](C)[C@H](C)C3)OCO2 [(−)-schisandrin C],~3.5
7,(R)-kawain,~2.7
8,"COC1=CC(=O)O[C@@H](CCc2ccc3c(c2)OCO3)C1 [7,8-dihydromethysticin]",~2.2
9,CC1=C(CO)C(=O)O[C@@H]([C@@H](C)[C@H]2CC[C@H]3[C@@H]4C[C@H](Cl)[C@]5(O)[C@@H](O)C=CC(=O)[C@]5(C)[C@H]4CC[C@]23C)C1 [6a-chloro-5b-hydroxywithaferin A],~3.2
10,schisandroside C,~1.6
11,CC(=O)OC1C=CC(=O)N(C(=O)CCc2ccccc2)C1 (stereo not shown) [pipermethystine],~1.8
12,COc1cc2c(c(OC)c1OC)-c1c(cc(OC)c(OC)c1OC)C[C@](C)(O)[C@@H](C)C2 [(+)-schisandrin],~5
13,COc1ccc([C@@]23CCC(=O)C[C@@H]2N(C)CC3)cc1OC [mesembrine],1.5
14,N#C[C@@]1(O[C@@H]2O[C@H](CO)[C@@H](O)[C@H](O)[C@H]2O)C=C[C@@H](O)C1 [tetraphyllin B],~−2.5
15,"COc1cc(/C=C/c2ccccc2)oc(=O)c1 [5,6-dehydrokawain]",~2.9
16,"COc1cc2c(c(OC)c1OC)-c1c(cc3c(c1OC)OCO3)CC(C)C(C)C2 (single isomer, unassigned; (-)) [(−)-schisandrin B]",~4
17,"COC1=CC(=O)OC(/C=C/c2ccc(OC)cc2)C1 (stereo not shown) [5,6-dihydroyangonin]",~2.5
18,COc1cc([C@H]2Oc3cc(O)c4c(=O)c(O)c(-c5ccc(O)cc5)oc4c3O[C@@H]2CO)ccc1O [rhodiolin],~2
19,hericerin,~6.4
20,COc1cc(/C=C\c2ccc(OC)c(O)c2)oc(=O)c1 [11-hydroxyyangonin],~2.2
21,COc1nc2c(c(=O)n1C)n(C)c(=O)n2C [methylliberine],~−0.083
22,tortuosomine,3
